Results on 2 compounds are retold here after US20100099871A1, “ANTI-PSYCHOTIC COMPOUNDS AND PHARMACEUTICAL COMPOSITIONS THEREOF” (priority 2008, published 2010).

In one test the target is Alpha 2B (Homo sapiens, UniProt P18089). The test can be described thus: In vitro receptor binding, Alpha 2B. As to conditions: given in words, no number. How it is done:
(§1) Three of the compounds predicted to display antipsychotic activity have been synthesized and characterized. Once compounds meeting selection criteria of the spectral models were identified, confirmatory in vitro screening and cross-screening were conducted. For example, receptor binding studies were conducted for 5-HT1A, 5-HT2A, 5-HT2C, 5-HT6, 5-HT7, α1A, α1B, α1D, α2A, α2B, α2C, D2, H1, M1, M2, M3, M4, and M5 to further determine a broad pharmacological profile for compounds meeting spectral modeling selection criteria. Synthesis and characterization of these compounds is provided as an Experimental Example. […] For D2 and 5-HT2A receptors, experimental results were within 11% of predicted values. […] In some embodiments, the compounds are selective for 5-HT2A over D2. […] As such the compounds are advantageous over clozapine and may be beneficial for treating psychotic conditions, such as schizophrenia.

For a further test, the target named is 5-HT2c (Homo sapiens, UniProt P28335). Description: In vitro receptor binding, 5-HT2c. As to conditions: read-out: In vitro testing data (receptor binding affinity), 5-HT2c. How it is done:
as §1

A further test addresses D2 (Homo sapiens, UniProt P14416). The test can be described thus: In vitro receptor binding, D2. As to conditions: read-out: In vitro testing data (receptor binding affinity), D2. How it is done: as §1
For a further test, the target named is M3 (Homo sapiens, UniProt P20309). Description: In vitro receptor binding, M3. As to conditions: read-out: In vitro testing data (receptor binding affinity), M3. The procedure: as §1
Another test deals with Alpha 2A (Homo sapiens, UniProt P08913). Description: In vitro receptor binding, Alpha 2A. As to conditions: given in words, no number. The procedure: as §1
For the next test, the target named is 5-HT6 (Homo sapiens, UniProt P50406). The test can be described thus: In vitro receptor binding, 5-HT6. As to conditions: read-out: In vitro testing data (receptor binding affinity), 5-HT6. The procedure:
as §1

The target of the next test is Alpha 2C (Homo sapiens, UniProt P18825). Description: In vitro receptor binding, Alpha 2C. Particulars: given in words, no number. How it is done:
as §1

A further test addresses Alpha 1A (Homo sapiens, UniProt P35348). The test can be described thus: In vitro receptor binding, Alpha 1A. As to conditions: given in words, no number. How it is done:
as §1

In another test the target is M1 (Homo sapiens, UniProt P11229). The test can be described thus: In vitro receptor binding, M1. Particulars: read-out: In vitro testing data (receptor binding affinity), M1. How it is done: as §1
The next test has as its target Alpha 1B (Homo sapiens, UniProt P35368). Description: In vitro receptor binding, Alpha 1B. As to conditions: given in words, no number. How it is done: as §1
In another test the target is H1 (Homo sapiens, UniProt P35367). Description: In vitro receptor binding, H1. As to conditions: read-out: In vitro testing data (receptor binding affinity), H1. How it is done:
as §1

The next test concerns the target M2 (Homo sapiens, UniProt P08172). The test can be described thus: In vitro receptor binding, M2. Particulars: read-out: In vitro testing data (receptor binding affinity), M2. How it is done: as §1
Another test addresses M5 (Homo sapiens, UniProt P08912). Description: In vitro receptor binding, M5. Particulars: read-out: In vitro testing data (receptor binding affinity), M5. How it is done:
as §1

Another test addresses M4 (Homo sapiens, UniProt P08173). Description: In vitro receptor binding, M4. As to conditions: read-out: In vitro testing data (receptor binding affinity), M4. The procedure: as §1
For a further test, the target named is 5-HT2a (Homo sapiens, UniProt P28223). Description: In vitro receptor binding, 5-HT2a. As to conditions: read-out: In vitro testing data (receptor binding affinity), 5-HT2a. How it is done: as §1
Another test addresses Alpha 1D (Homo sapiens, UniProt P25100). Description: In vitro receptor binding, Alpha 1D. As to conditions: given in words, no number. The procedure: as §1
The target in another test is 5-HT7 (Homo sapiens, UniProt P34969). The test can be described thus: In vitro receptor binding, 5-HT7. As to conditions: read-out: In vitro testing data (receptor binding affinity), 5-HT7. The procedure: as §1
The target in another test is 5-HT1a (Homo sapiens, UniProt P08908). Description: In vitro receptor binding, 5-HT1a. As to conditions: given in words, no number. How it is done: as §1
For test [1], the system named is pre-frontal cortex dopamine release. Description: In vivo microdialysis, pre-frontal cortex dopamine release. Also on record: species or system male Sprague-Dawley rats. As to conditions: rat microdialysis. How it is done: (§2) In vivo microdialysis studies were conducted according to established methods. In summary, two cannulae with microdialysis probes were implanted via stereotaxic surgery (one each into two separate brain regions), into the medial prefrontal cortex and nucleus accumbens of male Sprague-Dawley rats weighing from 250 g to 300 g. After recovery from surgery, a solution was circulated through the probes on test days collecting extracellular synaptic fluid at 30-minute intervals and delivering it to an HPLC for analysis of extracellular dopamine concentrations in real time following antipsychotic compound dosing. Simultaneously, an aliquot was taken and frozen for later mass spectrometric determination of acetylcholine concentrations.

In test [2] the test system is pre-frontal cortex acetylcholine release. The test can be described thus: In vivo microdialysis, pre-frontal cortex acetylcholine release. Also noted: species or system male Sprague-Dawley rats. Particulars: rat microdialysis (FIG. 13); LMD-00100t at the maximum dose tested, data not shown. How it is done:
as §2

In test [3] the test system is nucleus accumbens dopamine release. Description: In vivo microdialysis, nucleus accumbens dopamine release. Also on record: species or system male Sprague-Dawley rats. Particulars: rat microdialysis; ceiling effect, increasing dose gave no additional release (FIG. 12). How it is done:
as §2

Chain of Alpha 2A (P08913 whole entry): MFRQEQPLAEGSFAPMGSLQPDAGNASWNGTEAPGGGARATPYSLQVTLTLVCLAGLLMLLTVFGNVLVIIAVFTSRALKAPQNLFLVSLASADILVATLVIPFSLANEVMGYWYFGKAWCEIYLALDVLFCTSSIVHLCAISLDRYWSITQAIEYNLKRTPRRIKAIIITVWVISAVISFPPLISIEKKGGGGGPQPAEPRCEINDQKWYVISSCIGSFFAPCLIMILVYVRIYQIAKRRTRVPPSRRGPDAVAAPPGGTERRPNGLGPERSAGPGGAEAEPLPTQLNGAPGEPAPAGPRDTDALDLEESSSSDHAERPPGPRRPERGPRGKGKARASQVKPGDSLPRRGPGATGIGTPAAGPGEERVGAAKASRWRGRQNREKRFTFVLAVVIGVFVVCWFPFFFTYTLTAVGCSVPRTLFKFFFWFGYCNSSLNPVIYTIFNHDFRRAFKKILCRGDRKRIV
Chain of M1 (P11229 whole entry): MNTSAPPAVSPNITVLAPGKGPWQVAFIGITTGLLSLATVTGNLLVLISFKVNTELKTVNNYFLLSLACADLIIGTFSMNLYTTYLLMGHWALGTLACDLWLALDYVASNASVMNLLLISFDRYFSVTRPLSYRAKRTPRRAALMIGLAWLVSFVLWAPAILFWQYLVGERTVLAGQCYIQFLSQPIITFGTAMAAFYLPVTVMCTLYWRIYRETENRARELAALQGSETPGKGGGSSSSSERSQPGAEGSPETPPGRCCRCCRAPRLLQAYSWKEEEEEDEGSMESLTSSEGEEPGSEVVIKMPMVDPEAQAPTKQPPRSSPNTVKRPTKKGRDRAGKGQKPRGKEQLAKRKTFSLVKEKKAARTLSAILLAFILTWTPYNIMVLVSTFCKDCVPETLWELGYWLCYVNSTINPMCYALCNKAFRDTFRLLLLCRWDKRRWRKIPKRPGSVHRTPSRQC
Chain of Alpha 2C (P18825 whole entry): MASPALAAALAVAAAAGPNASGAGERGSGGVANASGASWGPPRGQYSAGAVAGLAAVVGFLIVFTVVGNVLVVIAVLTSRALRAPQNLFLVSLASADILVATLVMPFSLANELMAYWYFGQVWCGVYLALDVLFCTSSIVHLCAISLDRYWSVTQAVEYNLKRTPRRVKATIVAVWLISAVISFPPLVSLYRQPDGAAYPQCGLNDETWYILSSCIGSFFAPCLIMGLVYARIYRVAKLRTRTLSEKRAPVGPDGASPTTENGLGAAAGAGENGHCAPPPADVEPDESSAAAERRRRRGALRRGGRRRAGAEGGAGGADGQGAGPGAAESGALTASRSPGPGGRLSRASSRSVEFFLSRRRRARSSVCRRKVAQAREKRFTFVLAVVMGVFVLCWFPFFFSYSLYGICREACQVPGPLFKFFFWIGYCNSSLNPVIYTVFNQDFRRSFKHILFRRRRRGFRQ
Chain of Alpha 1B (P35368 whole entry): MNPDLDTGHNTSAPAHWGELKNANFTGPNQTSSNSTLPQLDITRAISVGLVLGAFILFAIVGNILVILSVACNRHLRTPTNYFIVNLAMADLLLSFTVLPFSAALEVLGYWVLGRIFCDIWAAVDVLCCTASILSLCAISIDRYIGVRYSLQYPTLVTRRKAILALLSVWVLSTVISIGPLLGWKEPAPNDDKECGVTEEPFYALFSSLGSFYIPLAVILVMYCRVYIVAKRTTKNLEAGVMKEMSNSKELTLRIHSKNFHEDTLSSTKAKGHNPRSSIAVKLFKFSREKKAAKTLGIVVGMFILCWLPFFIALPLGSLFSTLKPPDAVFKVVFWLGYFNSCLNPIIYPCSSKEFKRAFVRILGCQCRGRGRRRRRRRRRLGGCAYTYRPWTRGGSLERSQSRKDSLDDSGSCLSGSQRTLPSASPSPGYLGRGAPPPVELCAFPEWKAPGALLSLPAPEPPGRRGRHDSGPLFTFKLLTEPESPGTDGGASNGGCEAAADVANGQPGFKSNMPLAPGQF
Chain of M3 (P20309 whole entry): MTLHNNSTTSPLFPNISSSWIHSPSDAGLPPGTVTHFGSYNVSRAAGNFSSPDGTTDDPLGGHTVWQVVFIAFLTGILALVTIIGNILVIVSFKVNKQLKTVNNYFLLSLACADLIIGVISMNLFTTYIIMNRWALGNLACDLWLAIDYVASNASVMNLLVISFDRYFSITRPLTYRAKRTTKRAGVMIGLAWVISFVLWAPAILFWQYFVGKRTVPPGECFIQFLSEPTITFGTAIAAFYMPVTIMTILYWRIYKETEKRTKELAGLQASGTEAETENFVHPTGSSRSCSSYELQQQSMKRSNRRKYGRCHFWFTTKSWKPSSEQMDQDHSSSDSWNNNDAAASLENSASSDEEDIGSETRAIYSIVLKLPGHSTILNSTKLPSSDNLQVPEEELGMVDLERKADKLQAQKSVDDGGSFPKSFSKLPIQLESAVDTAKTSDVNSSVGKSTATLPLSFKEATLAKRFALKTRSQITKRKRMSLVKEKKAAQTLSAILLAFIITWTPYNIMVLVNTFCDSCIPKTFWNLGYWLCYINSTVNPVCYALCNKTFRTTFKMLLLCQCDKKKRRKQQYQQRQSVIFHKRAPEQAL
Chain of 5-HT6 (P50406 whole entry, species assumed): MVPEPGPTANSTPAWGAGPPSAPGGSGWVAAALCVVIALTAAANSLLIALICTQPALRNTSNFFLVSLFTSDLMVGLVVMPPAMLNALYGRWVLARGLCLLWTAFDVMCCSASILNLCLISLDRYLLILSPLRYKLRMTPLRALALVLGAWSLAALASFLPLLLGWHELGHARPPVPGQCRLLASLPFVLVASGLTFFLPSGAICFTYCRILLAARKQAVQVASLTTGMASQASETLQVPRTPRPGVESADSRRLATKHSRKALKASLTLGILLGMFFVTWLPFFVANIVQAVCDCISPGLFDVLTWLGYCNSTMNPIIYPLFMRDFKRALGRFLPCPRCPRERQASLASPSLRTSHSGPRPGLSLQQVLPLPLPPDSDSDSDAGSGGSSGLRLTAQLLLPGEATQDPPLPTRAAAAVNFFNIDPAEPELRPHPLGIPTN
Chain of Alpha 1A (P35348 whole entry): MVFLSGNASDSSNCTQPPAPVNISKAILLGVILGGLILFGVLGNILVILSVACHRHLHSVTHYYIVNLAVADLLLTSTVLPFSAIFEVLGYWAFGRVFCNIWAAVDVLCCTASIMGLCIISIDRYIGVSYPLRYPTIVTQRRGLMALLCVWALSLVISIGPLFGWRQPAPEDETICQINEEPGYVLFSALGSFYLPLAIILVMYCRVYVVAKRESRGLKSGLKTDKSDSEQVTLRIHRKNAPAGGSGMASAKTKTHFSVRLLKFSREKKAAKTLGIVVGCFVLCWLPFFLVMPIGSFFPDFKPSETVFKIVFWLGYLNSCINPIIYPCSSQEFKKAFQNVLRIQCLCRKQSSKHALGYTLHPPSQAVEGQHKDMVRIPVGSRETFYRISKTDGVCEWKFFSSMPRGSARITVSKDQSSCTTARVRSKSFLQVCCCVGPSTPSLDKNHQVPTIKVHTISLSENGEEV
Chain of D2 (P14416 whole entry): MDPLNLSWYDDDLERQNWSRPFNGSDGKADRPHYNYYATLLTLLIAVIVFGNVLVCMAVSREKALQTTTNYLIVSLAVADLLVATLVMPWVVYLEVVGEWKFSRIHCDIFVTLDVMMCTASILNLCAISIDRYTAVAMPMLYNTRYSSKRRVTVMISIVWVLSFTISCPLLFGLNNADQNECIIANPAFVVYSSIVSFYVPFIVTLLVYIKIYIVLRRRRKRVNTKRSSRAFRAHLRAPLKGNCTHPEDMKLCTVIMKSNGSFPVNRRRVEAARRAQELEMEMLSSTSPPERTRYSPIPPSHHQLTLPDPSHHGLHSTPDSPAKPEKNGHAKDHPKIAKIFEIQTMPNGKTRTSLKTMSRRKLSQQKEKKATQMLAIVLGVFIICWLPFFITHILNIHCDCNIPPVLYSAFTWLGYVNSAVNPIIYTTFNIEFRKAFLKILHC
Chain of M4 (P08173 whole entry): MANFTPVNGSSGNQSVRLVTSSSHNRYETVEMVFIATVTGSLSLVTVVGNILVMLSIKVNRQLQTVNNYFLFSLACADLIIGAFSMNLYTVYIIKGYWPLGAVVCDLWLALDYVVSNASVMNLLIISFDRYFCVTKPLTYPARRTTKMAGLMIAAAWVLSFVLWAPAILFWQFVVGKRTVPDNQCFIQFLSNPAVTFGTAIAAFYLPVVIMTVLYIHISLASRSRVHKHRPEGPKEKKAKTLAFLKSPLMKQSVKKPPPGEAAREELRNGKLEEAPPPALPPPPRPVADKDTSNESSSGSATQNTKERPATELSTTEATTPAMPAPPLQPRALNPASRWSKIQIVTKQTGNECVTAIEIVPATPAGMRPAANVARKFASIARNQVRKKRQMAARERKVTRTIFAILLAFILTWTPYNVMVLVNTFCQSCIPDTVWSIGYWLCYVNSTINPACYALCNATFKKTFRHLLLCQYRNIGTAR
Chain of Alpha 2B (P18089 whole entry): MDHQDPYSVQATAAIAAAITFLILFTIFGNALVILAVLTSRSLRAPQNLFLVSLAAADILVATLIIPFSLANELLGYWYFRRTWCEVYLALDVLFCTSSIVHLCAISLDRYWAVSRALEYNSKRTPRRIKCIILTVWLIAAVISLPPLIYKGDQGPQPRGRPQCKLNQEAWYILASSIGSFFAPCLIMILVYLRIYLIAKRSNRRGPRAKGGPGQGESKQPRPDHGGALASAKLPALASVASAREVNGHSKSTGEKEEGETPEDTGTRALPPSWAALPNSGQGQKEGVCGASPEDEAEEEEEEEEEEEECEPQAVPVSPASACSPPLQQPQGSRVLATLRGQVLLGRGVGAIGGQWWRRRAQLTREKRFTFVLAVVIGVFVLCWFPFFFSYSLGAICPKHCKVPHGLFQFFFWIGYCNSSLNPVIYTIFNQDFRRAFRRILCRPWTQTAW

As to `CCN1CCN(CCN2c3ccccc3Cc3ccccc32)CC1` [LMD-00060], at Alpha 2B, the “In vitro testing data, Alpha 2B (yes)” value is reported as “yes”. Moreover, the Kd on 5-HT2c stood at 2740 nM; at D2 it was 632 nM; on M3, 2490 nM; at 5-HT6 it was 1520 nM; at M1, 1360 nM; at H1, 255 nM. Besides, the Kd was over 10000 nM at M2; 613 nM at M5; 1910 nM on M4; 349 nM on 5-HT2a; 1060 nM on 5-HT7. Moreover, the “In vitro testing data, Alpha 2A (yes)” value on Alpha 2A was “yes”. In addition, the “In vitro testing data, Alpha 2C (yes)” value on Alpha 2C is “yes”. Besides, the “In vitro testing data, Alpha 1A (yes)” value on Alpha 1A is “yes”. For the same compound, at Alpha 1B, the “In vitro testing data, Alpha 1B (yes)” value is on record as “yes”. Further, at Alpha 1D, the “In vitro testing data, Alpha 1D (yes)” value is reported as “yes”.
For the compound `CN1CCN(CCN2c3ccccc3Cc3ccccc32)CC1` [LMD-00076], the “In vitro testing data, Alpha 2B (yes)” value at Alpha 2B is given as “yes”. Also, the “In vitro testing data, 5-HT1a (yes / dash)” value on 5-HT1a is listed as “yes”. Also, the Kd is 968 nM on 5-HT2c; 692 nM on D2; 702 nM at M3; 652 nM on 5-HT6; 707 nM on M1; 185 nM at H1. The Kd at M2 turned out to be 3330 nM; at M5, 419 nM; on M4, 1100 nM; at 5-HT2a it was 249 nM; on 5-HT7, 1140 nM. Moreover, the “pre-frontal cortex dopamine efflux on co-dosing with WAY 100635” value in [1] (5-HT1A silent antagonist WAY 100635 co-dosed with LMD-00076 (FIG. 11, curve labeled control)) is given as “blocked”. The “pre-frontal cortex dopamine release” value in [1] (as a function of time following administration (FIG. 11, FIG. 14)) was “dose-dependent”. For the same compound, the “cortical acetylcholine (ACh) efflux” value in test [2] is listed as “significant increase”. Further, the “In vitro testing data, Alpha 2A (yes)” value at Alpha 2A is “yes”. The “In vitro testing data, Alpha 2C (yes)” value at Alpha 2C is listed as “yes”. In addition, at Alpha 1A, the “In vitro testing data, Alpha 1A (yes)” value is on record as “yes”. In addition, the “In vitro testing data, Alpha 1B (yes)” value on Alpha 1B is “yes”. The “In vitro testing data, Alpha 1D (yes)” value on Alpha 1D is listed as “yes”. In addition, the “nucleus accumbens dopamine release” value in [3] was “modest increase”.
